Entries after “also recorded” stand apart in the source; their conditions may differ. [ ]: non-standard residue; d: D form. The star is where a group is joined. Biotin = O=C1N[C@H]2[C@H](CS[C@H]2CCCCC(=O)*)N1; Cit = NC(=O)NCCC[C@H](N)C(=O)O
Columns and labels:
normal mouse serum = settings: 37 °C
[1] = biological target: K562 αvβ6:mCherry cells (αvβ6 integrin) (Homo sapiens, UniProt P06756+P18564); format: binding
[2] = mouse
K562 cells = format: binding
in vitro = settings: mouse, serum

Sequence of K562 αvβ6:mCherry cells (αvβ6 integrin) (P06756 31-889 limits assumed): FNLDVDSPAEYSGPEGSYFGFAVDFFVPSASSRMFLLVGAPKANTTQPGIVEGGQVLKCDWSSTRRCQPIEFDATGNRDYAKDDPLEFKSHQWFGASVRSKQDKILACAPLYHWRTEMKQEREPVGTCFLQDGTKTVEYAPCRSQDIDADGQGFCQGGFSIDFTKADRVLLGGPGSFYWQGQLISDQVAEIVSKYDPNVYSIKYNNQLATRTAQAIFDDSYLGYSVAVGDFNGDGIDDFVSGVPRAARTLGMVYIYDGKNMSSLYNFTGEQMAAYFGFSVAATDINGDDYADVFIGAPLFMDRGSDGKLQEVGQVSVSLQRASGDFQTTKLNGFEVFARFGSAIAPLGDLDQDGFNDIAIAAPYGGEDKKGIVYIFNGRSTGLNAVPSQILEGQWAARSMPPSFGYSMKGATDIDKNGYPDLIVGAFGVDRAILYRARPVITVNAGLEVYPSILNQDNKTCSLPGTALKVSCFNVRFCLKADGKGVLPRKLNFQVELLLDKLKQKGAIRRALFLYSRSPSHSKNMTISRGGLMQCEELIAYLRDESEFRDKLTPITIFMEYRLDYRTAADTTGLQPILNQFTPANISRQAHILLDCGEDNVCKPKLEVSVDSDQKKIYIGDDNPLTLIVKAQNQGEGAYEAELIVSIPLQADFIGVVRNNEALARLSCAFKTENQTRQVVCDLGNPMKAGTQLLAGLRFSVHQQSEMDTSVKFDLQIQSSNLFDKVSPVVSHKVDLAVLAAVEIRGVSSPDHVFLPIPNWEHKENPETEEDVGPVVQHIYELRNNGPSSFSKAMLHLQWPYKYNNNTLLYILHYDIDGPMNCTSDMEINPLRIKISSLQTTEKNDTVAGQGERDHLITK
Sequence of K562 αvβ6:mCherry cells (αvβ6 integrin) (P06756 891-1048 partner limits assumed): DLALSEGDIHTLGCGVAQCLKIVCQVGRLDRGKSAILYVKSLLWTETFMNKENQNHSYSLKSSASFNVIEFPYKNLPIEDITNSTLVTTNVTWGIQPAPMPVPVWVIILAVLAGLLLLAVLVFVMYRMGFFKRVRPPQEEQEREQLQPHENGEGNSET
Sequence of K562 αvβ6:mCherry cells (αvβ6 integrin) (P18564 22-788 limits assumed): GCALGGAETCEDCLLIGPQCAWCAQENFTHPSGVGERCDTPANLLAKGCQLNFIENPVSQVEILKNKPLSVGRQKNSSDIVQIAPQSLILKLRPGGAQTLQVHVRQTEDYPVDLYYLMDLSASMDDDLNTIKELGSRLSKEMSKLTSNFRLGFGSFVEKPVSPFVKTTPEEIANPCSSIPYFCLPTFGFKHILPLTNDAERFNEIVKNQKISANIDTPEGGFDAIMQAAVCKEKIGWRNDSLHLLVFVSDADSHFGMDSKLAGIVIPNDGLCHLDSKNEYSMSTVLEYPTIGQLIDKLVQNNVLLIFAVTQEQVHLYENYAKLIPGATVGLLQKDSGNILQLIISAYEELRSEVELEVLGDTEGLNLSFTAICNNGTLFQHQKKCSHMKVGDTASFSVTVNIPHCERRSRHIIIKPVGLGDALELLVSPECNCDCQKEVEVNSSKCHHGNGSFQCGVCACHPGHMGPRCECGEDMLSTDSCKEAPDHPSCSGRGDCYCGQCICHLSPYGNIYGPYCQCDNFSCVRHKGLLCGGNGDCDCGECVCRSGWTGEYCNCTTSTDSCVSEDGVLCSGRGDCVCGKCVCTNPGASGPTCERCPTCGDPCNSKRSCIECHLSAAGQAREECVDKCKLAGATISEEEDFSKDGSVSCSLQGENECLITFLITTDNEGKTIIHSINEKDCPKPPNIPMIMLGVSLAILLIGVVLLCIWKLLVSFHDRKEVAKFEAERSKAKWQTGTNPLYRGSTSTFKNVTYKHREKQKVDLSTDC

For “Biotin-NCVPNLRGDLQVLAQKVC[Cit]TKAD-NH2 (cysteine pairing not given here)”, which cleaved bond (normal mouse serum; up to 24 h) is on record?
The cleaved bond was “Thr20-K21, 12 h”.

Which “binding to K562 αvβ6:mCherry cells (in words)” value [1] does the source give for CC(C)C[C@@H]1NC(=O)[C@H](CC(=O)O)NC(=O)CNC(=O)[C@H](CCCNC(=N)N)NC(=O)[C@H](CC(C)C)NC(=O)[C@H](CC(N)=O)NC(=O)[C@@H]2CCCN2C(=O)[C@H](C(C)C)NC(=O)[C@H](C)NC(=O)[C@@H](NC(=O)CCCC[C@@H]2SC[C@@H]3NC(=O)N[C@@H]32)CSc2c(F)c(F)c(c(F)c2F)-c2c(F)c(F)c(c(F)c2F)SC[C@@H](C(=O)N[C@@H](CCCNC(=N)N)C(=O)N[C@H](C(=O)N[C@@H](CCCCN)C(N)=O)[C@@H](C)O)NC(=O)[C@H](C(C)C)NC(=O)[C@H](CCCCN)NC(=O)[C@H](CCC(N)=O)NC(=O)[C@H](C)NC(=O)[C@H](CC(C)C)NC(=O)[C@H](C(C)C)NC(=O)[C@H](CCC(N)=O)NC1=O [C1C18 DFBP] here?
The value was “high affinity and specificity comparable to the original A20FMDV2 peptide”.

Which results are given for “Biotin-CADVPNLRGDLQVLADQKVCRDTKDAD-NH2 (cysteine pairing not given here)”?
cleaved bond (normal mouse serum; up to 24 h): KD21-AD22, 24 h; also recorded: L6-Arg7, major; fragment found (normal mouse serum; up to 24 h): 719: unidentified, 4 h

With CC(C)C[C@@H]1NC(=O)[C@H](CC(=O)O)NC(=O)CNC(=O)[C@H](CCCNC(=N)N)NC(=O)[C@H](CC(C)C)NC(=O)[C@H](CC(N)=O)NC(=O)[C@@H]2CCCN2C(=O)[C@H](C(C)C)NC(=O)[C@@H](NC(=O)[C@H](CC(N)=O)NC(=O)CCCC[C@@H]2SC[C@@H]3NC(=O)N[C@@H]32)CSc2c(F)c(F)c(c(F)c2F)-c2c(F)c(F)c(c(F)c2F)SC[C@@H](C(=O)N[C@@H](CCCNC(=N)N)C(=O)N[C@H](C(=O)N[C@@H](CCCCN)C(N)=O)[C@@H](C)O)NC(=O)[C@H](C(C)C)NC(=O)[C@H](CCCCN)NC(=O)[C@H](CCC(N)=O)NC(=O)[C@H](C)NC(=O)[C@H](CC(C)C)NC(=O)[C@H](C(C)C)NC(=O)[C@H](CCC(N)=O)NC1=O [C2C18 DFBP] as the molecule, how does the “binding to K562 αvβ6:mCherry cells (in words)” value [1] read?
The value was “high affinity and specificity comparable to the original A20FMDV2 peptide”.

With CC(C)C[C@@H]1NC(=O)[C@H](CC(=O)O)NC(=O)CNC(=O)[C@H](CCCNC(=N)N)NC(=O)[C@H](CC(C)C)NC(=O)[C@H](CC(N)=O)NC(=O)[C@@H]2CCCN2C(=O)[C@H](C(C)C)NC(=O)[C@@H](NC(=O)[C@H](CC(N)=O)NC(=O)CCCC[C@@H]2SC[C@@H]3NC(=O)N[C@@H]32)CSc2c(F)c(F)c(c(F)c2F)-c2c(F)c(F)c(c(F)c2F)SC[C@@H](C(=O)N[C@H](CCCNC(=N)N)C(=O)N[C@H](C(=O)N[C@@H](CCCCN)C(=O)N[C@H](C)C(N)=O)[C@@H](C)O)NC(=O)[C@H](C(C)C)NC(=O)[C@H](CCCCN)NC(=O)[C@H](CCC(N)=O)NC(=O)[C@H](C)NC(=O)[C@H](CC(C)C)NC(=O)[C@H](C(C)C)NC(=O)[C@H](CCC(N)=O)NC1=O [C2C18 RDTKAD DFBP] as the molecule, how does the “t1/2 of intact peptide in serum” value [2] read?
Its value is 4.518 h.

And the “reduced binding fluorescence (maximal signal versus A20FMDV2, Fig. 3B)” value [1]?
Its value is ~60%.

With “Biotin-CAVPNLRGDLQVLAQKVCRTK-NH2 (cysteine pairing not given here)” as the molecule, how does the cleaved bond (normal mouse serum; up to 6 h) read?
Its cleaved bond is “C18-arginine19”.

Which “binding to parental K562 cells (in words)” value (K562 cells) does the source give for CC(C)C[C@@H]1NC(=O)[C@H](CC(=O)O)NC(=O)CNC(=O)[C@H](CCCNC(=N)N)NC(=O)[C@H](CC(C)C)NC(=O)[C@H](CC(N)=O)NC(=O)[C@@H]2CCCN2C(=O)[C@H](C(C)C)NC(=O)[C@H](C)NC(=O)[C@@H](NC(=O)CCCC[C@@H]2SC[C@@H]3NC(=O)N[C@@H]32)CSc2c(F)c(F)c(c(F)c2F)-c2c(F)c(F)c(c(F)c2F)SC[C@@H](C(=O)N[C@H](C(=O)N[C@@H](CCCCN)C(N)=O)[C@@H](C)O)NC(=O)[C@H](C)NC(=O)[C@H](C(C)C)NC(=O)[C@H](CCCCN)NC(=O)[C@H](CCC(N)=O)NC(=O)[C@H](C)NC(=O)[C@H](CC(C)C)NC(=O)[C@H](C(C)C)NC(=O)[C@H](CCC(N)=O)NC1=O [C1C19 DFBP] here?
Its value is “significantly bound to parental K562 cells at high concentrations”.

Which half-life (in vitro) does the source give for CC(C)C[C@@H]1NC(=O)[C@H](CC(=O)O)NC(=O)CNC(=O)[C@H](CCCNC(=N)N)NC(=O)[C@H](CC(C)C)NC(=O)[C@H](CC(N)=O)NC(=O)[C@@H]2CCCN2C(=O)[C@H](C(C)C)NC(=O)[C@@H](NC(=O)[C@H](CC(N)=O)NC(=O)CCCC[C@@H]2SC[C@@H]3NC(=O)N[C@@H]32)CSc2c(F)c(F)c(c(F)c2F)-c2c(F)c(F)c(c(F)c2F)SC[C@@H](C(=O)N[C@@H](CCCNC(N)=O)C(=O)N[C@H](C(=O)N[C@@H](CCCCN)C(=O)N[C@H](C)C(N)=O)[C@@H](C)O)NC(=O)[C@H](C(C)C)NC(=O)[C@H](CCCCN)NC(=O)[C@H](CCC(N)=O)NC(=O)[C@H](C)NC(=O)[C@H](CC(C)C)NC(=O)[C@H](C(C)C)NC(=O)[C@H](CCC(N)=O)NC1=O [C2C18 CitTKAD DFBP] here?
The half-life was 4.96 h.

For “Biotin-CAVPNLRGDLQVLAQKVCRTK-NH2 (cysteine pairing not given here) [C1C18 DFBP]”, which cleaved bond (normal mouse serum; up to 6 h) is on record?
Its cleaved bond is “C18-arginine19, 2 h”.

Which cleaved bond (normal mouse serum; up to 6 h) does the source give for “Biotin-NCVPNLRGDLQVLAQKVCRTK-NH2 (cysteine pairing not given here)” here?
Its cleaved bond is “C18-arginine19, 2 h”.

With CC(C)C[C@@H]1NC(=O)[C@H](CC(=O)O)NC(=O)CNC(=O)[C@H](CCCNC(=N)N)NC(=O)[C@H](CC(C)C)NC(=O)[C@H](CC(N)=O)NC(=O)[C@@H]2CCCN2C(=O)[C@H](C(C)C)NC(=O)[C@H](C)NC(=O)[C@@H](NC(=O)CCCC[C@@H]2SC[C@@H]3NC(=O)N[C@@H]32)CSc2c(F)c(F)c(c(F)c2F)-c2c(F)c(F)c(c(F)c2F)SC[C@@H](C(=O)N[C@@H](CCCCN)C(N)=O)NC(=O)[C@H](CCCNC(=N)N)NC(=O)[C@H](C)NC(=O)[C@H](C(C)C)NC(=O)[C@H](CCCCN)NC(=O)[C@H](CCC(N)=O)NC(=O)[C@H](C)NC(=O)[C@H](CC(C)C)NC(=O)[C@H](C(C)C)NC(=O)[C@H](CCC(N)=O)NC1=O [C1C20 DFBP] as the molecule, how does the “binding to K562 αvβ6:mCherry cells (in words)” value [1] read?
Its value is “high affinity and specificity comparable to the original A20FMDV2 peptide”.

Which “binding to parental K562 cells (in words)” value (K562 cells) does the source give for CC(C)C[C@@H]1NC(=O)[C@H](CC(=O)O)NC(=O)CNC(=O)[C@H](CCCNC(=N)N)NC(=O)[C@H](CC(C)C)NC(=O)[C@H](CC(N)=O)NC(=O)[C@@H]2CCCN2C(=O)[C@H](C(C)C)NC(=O)[C@@H](NC(=O)[C@H](CC(N)=O)NC(=O)CCCC[C@@H]2SC[C@@H]3NC(=O)N[C@@H]32)CSc2c(F)c(F)c(c(F)c2F)-c2c(F)c(F)c(c(F)c2F)SC[C@@H](C(=O)N[C@H](C(=O)N[C@@H](CCCCN)C(N)=O)[C@@H](C)O)NC(=O)[C@H](C)NC(=O)[C@H](C(C)C)NC(=O)[C@H](CCCCN)NC(=O)[C@H](CCC(N)=O)NC(=O)[C@H](C)NC(=O)[C@H](CC(C)C)NC(=O)[C@H](C(C)C)NC(=O)[C@H](CCC(N)=O)NC1=O [C2C19 DFBP] here?
Its value is “significantly bound to parental K562 cells at high concentrations”.

For “Biotin-NCVPNLRGDLQVLAQKVCRDTKAD-NH2 (cysteine pairing not given here)”, which cleaved bond (normal mouse serum; up to 24 h) is on record?
The cleaved bond was “L6-Arg7, major, 8 h; also recorded: Arg7-G8, major, 8 h; also recorded: Asn1-C2, 24 h”.

For biotin-NCVPhNLRGDLQVLAQKVCRDTKAD-amide, which cleaved bond (normal mouse serum; up to 24 h) is on record?
Its cleaved bond is “Asn1-C2, 24 h”.

— publication PMC8138772 (The Journal of Biological Chemistry, 2021)
